According to paper PMC4777244, “Activation of transient receptor potential ankyrin 1 induces CGRP release from spinal cord synaptosomes” (Pharmacology Research & Perspectives, 2015):
Where “and” joins values, the source holds several entries; their conditions need not be identical. Identical values can stand only once. Entries after “also recorded” stand apart in the source; their conditions may differ. Counter-ions that a name gives are not always drawn. Like-named read-outs stand apart in the source and are kept apart here.

Key:
TRPA1 = target: T1, TRPA1 (Rattus norvegicus, UniProt Q6RI86); assay: cell-based
T1 construct: TRPA1 natively expressed on the central terminals of dorsal root ganglion neurons; from tissue; host or cells: lumbar spinal cord homogenate (synaptosomes) of adult male Sprague Dawley rats

[1] = tested on: recombinantly‐expressed TRPA1 channels; settings: cited from earlier work
spinal cord synaptosomes = assay: KCl (depolarization)-evoked CGRP release from rat spinal cord homogenate, ELISA; type: cell-based; settings: for CGRP release over basal release: n = 3
T‐type VGCCs = tested on: T‐type VGCCs; parameters: method as in Martin et al. 2000; settings: ref Martin et al. 2000; cited from earlier work
[2] = tested on: voltage‐gated calcium channels (VGCCs); type: cell-based, rat
[3] = tested on: voltage‐gated calcium channels (VGCCs); type: cell-based, rat; remark: listed apart in the source
TRPM3 = tested on: TRPM3; parameters: method as in Wagner et al. 2008; settings: ref Wagner et al. 2008; read-out: EC50 for activation of TRPM3; cited from earlier work

T1 sequence (Q6RI86 whole entry): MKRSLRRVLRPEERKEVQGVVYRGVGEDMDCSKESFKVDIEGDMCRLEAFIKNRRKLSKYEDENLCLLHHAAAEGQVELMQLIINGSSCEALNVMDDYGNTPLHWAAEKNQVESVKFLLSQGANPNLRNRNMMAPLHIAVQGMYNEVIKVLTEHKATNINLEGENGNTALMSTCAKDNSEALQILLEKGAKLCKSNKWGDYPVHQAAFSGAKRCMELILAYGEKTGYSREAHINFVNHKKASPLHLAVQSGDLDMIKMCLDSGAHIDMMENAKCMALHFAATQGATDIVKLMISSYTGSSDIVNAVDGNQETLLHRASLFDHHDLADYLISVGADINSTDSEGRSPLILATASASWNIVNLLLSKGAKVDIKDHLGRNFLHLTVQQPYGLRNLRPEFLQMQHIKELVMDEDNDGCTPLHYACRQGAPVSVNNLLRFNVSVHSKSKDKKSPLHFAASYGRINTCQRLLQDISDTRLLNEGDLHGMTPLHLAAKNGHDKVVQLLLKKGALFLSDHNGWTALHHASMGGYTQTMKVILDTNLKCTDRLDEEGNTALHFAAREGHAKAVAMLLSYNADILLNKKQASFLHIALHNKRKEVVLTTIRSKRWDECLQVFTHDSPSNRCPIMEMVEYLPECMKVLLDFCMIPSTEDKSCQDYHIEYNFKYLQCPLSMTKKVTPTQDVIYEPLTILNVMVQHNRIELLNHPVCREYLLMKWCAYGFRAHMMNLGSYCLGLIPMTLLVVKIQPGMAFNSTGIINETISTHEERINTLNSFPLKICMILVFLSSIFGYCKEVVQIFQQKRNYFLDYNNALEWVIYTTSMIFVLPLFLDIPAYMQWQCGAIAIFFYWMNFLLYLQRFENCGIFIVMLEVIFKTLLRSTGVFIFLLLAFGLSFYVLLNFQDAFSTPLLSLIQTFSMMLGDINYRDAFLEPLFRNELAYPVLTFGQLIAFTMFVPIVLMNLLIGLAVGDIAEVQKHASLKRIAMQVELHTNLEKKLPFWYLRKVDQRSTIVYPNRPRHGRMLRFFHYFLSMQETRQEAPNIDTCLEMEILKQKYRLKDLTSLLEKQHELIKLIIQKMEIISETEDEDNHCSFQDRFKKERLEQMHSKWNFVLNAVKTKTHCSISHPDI

Compound: CCCCCC(O)/C=C/C=O (stereo not shown) [4‐HNE, 4‐hydroxynonenal]
- EC50 (TRPA1; read-out: EC50 of CGRP release): 17.4 ± 0.68 µM

Compound: CCCCCC(=O)C=CC=O [4‐ONE, 4‐oxo‐2‐nonenal]
- EC50 ([1]; ref Taylor‐Clark et al. 2008, read-out: previously reported EC50 value): ~2 µM
- EC50 (TRPA1; rat spinal cord homogenate, ELISA, mean ± SEM, read-out: EC50 of CGRP release): 63.8 µM and ~64 µM

Compound: C=CCN=C=S [AITC, allyl‐isothiocyanate]
- AITC-induced CGRP release (TRPA1): 42 ± 11 % of 40 mmol/L KCl‐evoked release

Compound: CC(=C\c1ccc(Cl)cc1)/C(C)=N/O [AP18]
- AITC-induced CGRP release in the presence of AP18 (TRPA1; 50 μmol/L AP18, 100 μmol/L AITC, dorsal homogenate): 8 ± 5 % of 40 mmol/L KCl‐evoked release
- cinnamaldehyde-evoked CGRP release in the presence of AP18 (TRPA1; 50 μmol/L AP18, 100 μmol/L cinnamaldehyde, dorsal homogenate): −1 ± 3 % of 40 mmol/L KCl‐evoked release
- effect on CGRP release induced by 40 mmol/L and 60 mmol/L KCl (spinal cord synaptosomes; 50 μmol/L AP18): no effect

Compound: [Cl-].[K+] [KCl]
- CGRP release evoked by 40 mmol/L KCl, absence of morphine (spinal cord synaptosomes; 40 mmol/L KCl, dorsal homogenate, morphine experiment, n = 4): 77 ± 7 % over basal release
- CGRP release over basal release (spinal cord synaptosomes; 40 mmol/L KCl, dorsal spinal cord homogenate, dorsal/ventral experiment): 67 ± 9 % over basal release
- CGRP release over basal release (spinal cord synaptosomes; 40 mmol/L KCl, ventral spinal cord homogenate): 6 ± 4 % over basal release
- CGRP release evoked by 60 mmol/L KCl, absence of morphine (spinal cord synaptosomes; 60 mmol/L KCl, dorsal homogenate, morphine experiment, n = 4): 131 ± 17 % over basal release

Compound: O=C/C=C/c1ccccc1 [cinnamaldehyde]
- cinnamaldehyde-evoked CGRP release (TRPA1; 100 μmol/L cinnamaldehyde, dorsal homogenate, absence of AP18): 39 ± 8 % of 40 mmol/L KCl‐evoked release
- CGRP release over basal release (TRPA1; 100 μmol/L cinnamaldehyde, dorsal spinal cord homogenate, n = 3): 14 ± 5 % over basal release
- CGRP release over basal release (TRPA1; 100 μmol/L cinnamaldehyde, ventral spinal cord homogenate, n = 3): 0 ± 1 % over basal release
- response to 1000 μmol/L cinnamaldehyde in Ca2+ free solutions as % of the response in Ca2+ containing solutions (TRPA1; 1000 μmol/L, Ca2+ free, 1 mmol/L EGTA, mean ± SEM, n = 3): 18 ± 6%
- EC50 (TRPA1; EC50 of CGRP release, rat spinal cord homogenate, ELISA, mean ± SEM): 54.8 ± 5.84 µM

Compound: COCC(=O)O[C@]1(CCN(C)CCCc2nc3ccccc3[nH]2)CCc2cc(F)ccc2[C@@H]1C(C)C [mibefradil dihydrochloride]
- greater affinity for T-type VGCCs than for L-type VGCC (T‐type VGCCs): 12–13 fold
- decrease of high potassium-induced CGRP release ([2]; 40 mmol/L KCl, mibefradil dihydrochloride 10 μmol/L, cocktail): ~ 50%
- effect on 40 mmol/L KCl-induced CGRP release ([2]; nifedipine 5 μmol/L, ω‐conotoxin MVIIC 200 nmol/L, mibefradil dihydrochloride 10 μmol/L, cocktail): significantly decreased
- depolarization-induced CGRP release in the presence of inhibitor ([2]; ω‐conotoxin MVIIC 1 μmol/L, mibefradil dihydrochloride 10 μmol/L, cocktail (5 μmol/L nifedipine, 1 μmol/L ω‐conotoxin MVIIC, 10 μmol/L mibefradil)): 48 ± 6 % of control 40 mmol/L KCl‐evoked release
- effect on 100 μmol/L cinnamaldehyde-induced CGRP release ([3]; nifedipine 5 μmol/L, mibefradil dihydrochloride 10 μmol/L, ω‐conotoxin MVIIC 200 nmol/L, ANOVA): not significantly altered; also recorded: not significantly affected

Compound: COC(=O)C1=C(C)NC(C)=C(C(=O)OC)C1c1ccccc1[N+](=O)[O-] [nifedipine]
- EC50 ([1]; ref Fajardo et al. 2008, read-out: EC50 for activation of recombinantly-expressed TRPA1 channels): ~0.4 µM
- EC50 (TRPM3): ~30 µM

Compound: ω‐conotoxin MVIIC
- depolarization-induced CGRP release in the presence of inhibitor [2]: 73 ± 8 % of control 40 mmol/L KCl‐evoked release
- effect on 100 μmol/L cinnamaldehyde-induced CGRP release [3]: not significantly altered; also recorded: not significantly affected
